{"source": "patent US10898577B2", "about": "“Conjugate of ginsenoside compound K and glycol chitosan and an anti-tumor use thereof” (priority 2015, dated 2021)", "tested_on": "HT-29 (human colon cancer) cell line", "description": "To observe the anticancer activity of the GC-CK conjugates, the cytotoxicity of pure GC, CK, and GC-CK conjugates were confirmed in anticancer cells by MTT assay.\nSpecifically, the HT-29 (human colon cancer) cell line was purchased from the Korean Cell Line Bank (Seoul, Korea) and cultured in RPMI 1640 medium (Welgene, Inc.) containing 1% (w/v) penicillin-streptomycin (Welgene, Inc.) and 10% (v/v) FBS (Welgene, Inc.) in 5% CO2 and 95% humidity at 37° C. The cells were inoculated at a density of 2×10^4 cells/well in 96-well plates (SPL Life Sciences, Korea). After growing for 24 h, the culture medium was replaced with the culture medium containing 100 μL, of various concentrations of GC, standard GC, and GC-CK and cultured for 24 h at 37° C. Next, 10 μL of 3-(4, 5-dimethylthiazol-2-yl)-2, 5-diphenyl-tertazolium bromide) (MTT) was added and the plates were cultured for 3 hours at 37° C. The culture medium was then removed and blue formazan crystals were dissolved with 100 μL of DMSO. The optical density was measured at 570 nm using a Synergy HT multidetection microplate reader (Molecular Devices, BioTek Instruments, Winooski, Vt., USA)."}
{"substance": "Glycol chitosan [GC]", "values": [{"measurement": "cytotoxicity in HT29 cells", "result": "did not exhibit any cytotoxicity"}]}
